Like-named read-outs stand apart in the source and are kept apart here.
How the values were obtained:
[1] = after administration; cited from earlier work
[2] = molecular target: glycine B (GlyB) coagonist site on the NMDA-R (Homo sapiens, UniProt Q05586); settings: cited from earlier work
[3] = Phase 1b clinical study: plasma pharmacokinetics after single and multiple once-daily oral doses of AV-101; settings: human plasma
Description: (§1) A Phase 1b, single-site, randomized, double-blind, placebo-controlled, study was conducted involving multiple oral doses of AV-101 in healthy male and female subjects. Subjects were randomized into one of three cohorts (360, 1,080, and 1,440 mg) and received a daily oral dose for 14 consecutive days. […] The safety, pharmacokinetics (PK), tolerability of treatment, and antihyperalgesic effect of AV-101 on capsaicin-induced hyperalgesia were assessed.
(§2) Blood was collected in 6-mL lithium heparin Vacutainer tubes. Samples were centrifuged, and the plasma was separated from the cells and frozen within 30 minutes after centrifugation. Centrifuged samples were placed on ice until they were placed in the freezer. Plasma samples were stored frozen at approximately −20° C. until their shipment to a contractor for analysis.
(§3) Baseline samples (0 minutes) were collected before the drug was administered on Day 1 and on Day 14. Samples were then collected at 0.5, 1, 1.5, 2, 4, 6, 8, 12, and 24 hours after dosing on Day land Day 14.
(§4) Both assays used a plasma sample volume of 50.0 μL.

[4] = test system: excitotoxic and ischemic neuronal damage; settings: cited from earlier work
[5] = Safety and tolerability in humans (clinical study); format: in vivo, human; settings: certain doses (360, 1,080, 1,440 mg daily oral)
Description: The compound is an antihyperalgesic.
“Without significant adverse effect” means that substantially all patients to whom L-4-chlorokynurenine is administered will have no more than a “mild” adverse event as defined by the U.S. Food and Drug Administration (FDA). The FDA defines a “mild adverse event” as an event that is easily tolerated by the subject, causing minimal discomfort and not interfering with everyday activities. In contrast, a “moderate adverse event” is an event that is sufficiently discomforting causing it to interfere with normal everyday activities.

[6] = Reported feelings of well-being (anti-depressive activity) in the clinical study; format: in vivo, human; settings: zero subjects in the placebo group
From the text: In the clinical study described in this application, 5 out of 26 subjects (as contrasted with zero subjects in the placebo group) affirmatively reported feelings of well being. This is consistent with reports that the glutamatergic system contributes to the pathophysiology of depression and that stress can induce changes in NMDA receptors. See, for example, Calabrese et al. “Stress-Induced Changes of Hippocampal NMDA Receptors: Modulation by Duloxetine Treatment,” PLoS ONE 2012, 7(5): e37916. doi:10.1371/journal.pone.0037916.

dopaminergic neurons = settings: brains of rats (Reference 7); cited from earlier work
seizures = settings: rats, preclinical studies (Reference 11); cited from earlier work
[7] = test system: capsaicin-induced hyperalgesia; test: Antihyperalgesic effect on capsaicin-induced hyperalgesia (VAS pain assessments) in Phase 1b study; format: in vivo, human
Description: On Day 1 and Day 14 of the clinical study, two intradermal injections of 250 μg of capsaicin were injected sequentially into the volar aspect of alternate forearms to produce burning pain, secondary hyperalgesia, and a flare. The capsaicin USP (United States Pharmacopeia) was prepared according to the site's standard procedure and dissolved in 20% cyclodextrin at a concentration of 10 mg/mL.
The first capsaicin injection in one forearm was given 1 hour after oral administration of AV-101 or placebo, and the second capsaicin injection was given in the other forearm 2 hours after the administration of AV-101 or placebo. The neurosensory testing began immediately at each capsaicin injection. The serial pain assessments using a 100-mm visual analog scale (VAS) occurred at preinjection and 0, 5, 10, 15, 30, 45, and 60 minutes after each capsaicin injection. The examiner asked the subject to rate the intensity by using the VAS of the spontaneous pain and elicited pain from the application of a 5.18 von Frey hair, 40° C. probe, and gentle stroking with a 1-inch foam brush. The VAS consisted of a 100-mm line with “no pain” written at the 0-mm end and the “worst imaginable pain” written at the 100-mm end. The distance in millimeters provided the pain measurement.
At least eight determinations of the hyperalgesic area borders were made using the same assessments and starting at different angles. Additionally, subjects were asked to rate the pain intensity of a 1-minute 45° C. heat stimulus (brief thermal stimulation) applied to the anterior thigh at 4.5 hours (±5 minutes) after study drug administration, then every 30 minutes (±5 minutes) through 6 hours after study drug administration. A radiant temperature probe was applied to fix the skin temperature at 36° C. during the pain assessments. Subjects used the VAS for all pain assessments.
All study assessment time points were anchored to Time 0, the time of study drug administration. For the capsaicin injection at 1 hour after dosing, the assessment interval (i.e., time after dosing of the study drug) was 60 to 120 minutes, during which time assessments occurred at approximately 60, 65, 70, and 75 minutes and then every 15 minutes through the 120-minute time point (i.e., 0, 5, 10, 15, 30, 45, and 60 minutes after capsaicin injection). The second injection of capsaicin was administered approximately 2 hours after dosing of the clinical trial material (CTM), and the assessment interval (i.e., time after dosing of the CTM) was 120 to 180 minutes. The serial pain assessments followed the same schedule, as described after the first capsaicin injection.
The primary efficacy endpoint was the analgesic response to spontaneous pain at each dose level of AV-101 120 to 180 minutes after dosing on Day 14.

[8] = human, in vivo, po
Description: as §1, §2, §3, §4

activated astrocytes = settings: within activated astrocytes (Reference 5); cited from earlier work
[9] = test system: peripheral tissue inflammation and nerve injury; test: Animal models of peripheral tissue inflammation and nerve injury; format: in vivo
[10] = Day 1, after 1,440-mg oral dose of L-4-chlorokynurenine

For `O=C(O)c1cc(O)c2ccc(Cl)cc2n1` [7-chlorokynurenic acid], the “Crossing of the blood-brain barrier / access to the CNS” value [1] is given as “does not cross the blood-brain barrier”, the “GlyB antagonist potency and specificity” value [2] is given as “One of the most potent and specific GlyB antagonists” and the “Mean 7-chlorokynurenic acid Cmax” value ([3]; Day 1, after 360-mg oral dose of L-4-chlorokynurenine) is given as 42.7 ng/mL. The “Mean 7-chlorokynurenic acid AUCO-t” value [3, 10] was 985 ng·b/mL, the “Mean 7-chlorokynurenic acid Cmax” value [3, 10] was 314 ng/mL and the “Mean 7-chlorokynurenic acid AUCO-t” value ([3]; Day 1, after lowest dose (360 mg) of L-4-chlorokynurenine) was 156 ng·h/mL. The “Dose linearity of mean 7-chlorokynurenic acid Cmax and AUCO-t” value ([3]; after oral L-4-chlorokynurenine 360 to 1,440 mg) was “approximately dose linear”, the “Mean Cmax and AUCO-t of 7-chlorokynurenic acid on Day 14 compared with Day 1” value ([3]; once-daily oral L-4-chlorokynurenine for 14 days) was “slightly lower on Day 14 than those on Day 1” and the “Prevention of excitotoxic and ischemic neuronal damage” value [4] was “prevent excitotoxic and ischemic neuronal damage”.

For `Nc1cc(Cl)ccc1C(=O)CC(N)C(=O)O` [L-4-chlorokynurenine], the “Safety and tolerability in humans” value [5] is given as “safe and tolerable in humans without substantial side effects or any significant adverse effects”, the “Crossing of the blood-brain barrier / access to the CNS” value [1] is given as “readily gains access to the central nervous system” and the “Subjects affirmatively reporting feelings of well being” value [6] is given as 5 out of 26. For the same compound, the “Firing rate and burst firing activity of dopaminergic neurons” value (dopaminergic neurons) was “increase the firing rate and burst firing activity”, the Anti-seizure activity (seizures) was “anti-seizure activity” and the “Least squares means of the AUPC for allodynia pain, mechanical hyperalgesia pain and heat hyperalgesia pain” value ([7]; 1,080 mg (Cohort 2) versus placebo) was “consistent decrease”. For the same compound, the “MAXPAIN, Spontaneous Pain” value ([7]; 1080 mg oral daily, n=13, 100-mm VAS, placebo 77.00) was 75.08, the “MAXPAIN, Allodynia Pain (foam brush)” value ([7]; 1080 mg oral daily, n=13, 100-mm VAS, placebo 79.50) was 70.92 and the “MAXPAIN, Mechanical Allogesia” value ([7]; 1080 mg oral daily, n=13, 100-mm VAS, placebo 79.75) was 66.23. For the same compound, the “MAXPAIN, Heat Allogesia” value ([7]; 1080 mg oral daily, n=13, 100-mm VAS, placebo 84.75) was 78.85, the “Secondary efficacy endpoints (AUPC for spontaneous pain, elicited pain from von Frey hair and 40° C. probe)” value ([7]; 120 to 180 minutes Day 1, 60 to 180 minutes Days 1 and 14, versus placebo) was “no significant changes” and the “Area under the pain time curve (AUPC) for spontaneous pain, primary efficacy endpoint” value ([7]; each dose level, 120 to 180 minutes after dosing on Day 14, versus placebo) was “no significant change”. The “Subject-reported relief from neuropathic pain, specifically hyperalgesia pain” value ([7]; humans, at the clinical dosages) was “subjects reported relief from neuropathic pain”, the “Dose linearity of mean L-4-chlorokynurenine Cmax and AUCO-∞” value [8] was “approximately dose linear, although not proportional” and the “Mean Cmax and AUCO-t of L-4-chlorokynurenine on Day 14 compared with Day 1” value [8] was “slightly lower on Day 14 than those on Day 1”. The “Mean L-4-chlorokynurenine AUCO-t” value [8] was 196000 ng·h/mL, the “Mean L-4-chlorokynurenine Tmax” value [8] was roughly 2 h and the “Mean t½ of L-4-chlorokynurenine” value [8] was 1.64 to 1.82 h. The “Mean L-4-chlorokynurenine AUCO-t” value ([8]; 360 mg) was 64000 ng·h/mL, the “Conversion to 7-chlorokynurenic acid” value (activated astrocytes) was “efficiently converted” and the “Tolerability in animal models” value ([9]; at doses that produce antihyperalgesic effects) was “well tolerated”. For the same compound, the “Antihyperalgesic actions in animal models” value ([9]; three animal models of peripheral tissue inflammation and nerve injury) was “potent antihyperalgesic actions”.
